Data: patent US9326513B2, “Fungicidal compositions” (Syngenta Participations AG, priority 2011, dated 2016)

Columns and labels:
Gaeumannomvces graminis = Gaeumannomvces graminis (take-all of cereals), PDB microtiter plate, visual after 48 hrs; format: cell-based; conditions: solo; for inhibition at 0.015625 ppm: rate 0.015625 ppm
Description: In the following Tables ‘Activity (%)’ means the assessed experimental activity (% disease control in this test when compared to untreated control leaf disks under the same conditions, which show extensive disease development) and “P” is the expected value calculated (expected) activity according to the COLBY formula (see above). The column headed ‘S?’ indicates whether or not synergy was observed, with ‘y’ meaning that synergy was observed. Gaeumannomvces graminis (Take-all of Cereals) Mycelial fragments of the fungus from cryogenic storage were directly mixed into nutrient broth (PDB potato dextrose broth). After placing a (DMSO) solution of the test compounds into a microtiter plate (96-well format) the nutrient broth containing the fungal spores was added.

[1] = tested on: Mycosphaerella arachidis (y. Cercospora arachidicola); experiment: Mycosphaerella arachidis (brown leaf spot of groundnut), PDB microtiter plate, visual after 5-6 days; format: cell-based; conditions: single compound
Pyrenophora teres = Pyrenophora teres / barley / leaf disc preventative (net blotch); format: in vivo; conditions: foliar, compared to untreated control leaf disks, read-out: disease control
Description: Pyrenophora teres/Barley/Leaf Disc Preventative (Net Blotch) Barley leaf segments cv. Hasso were placed on agar in a multiwell plate (24-well format) and sprayed with the formulated test compound diluted in water. The leaf segments were inoculated with a spore suspension of the fungus 2 days after application.

Pythium ultimum = Pythium ultimum (damping off), PDB microtiter plate, visual after 48 hrs; format: cell-based; conditions: Globisporangium ultimum, solo
[2] = Mycosphaerella arachidis, 0.015625 ppm, read-out: Activity (%)
[3] = Mycosphaerella arachidis, read-out: Activity (%)
[4] = Mycosphaerella arachidis, 0.03125 ppm, read-out: Activity (%)
[5] = Mycosphaerella arachidis, 0.0625 ppm, read-out: Activity (%)

## CCN(C)/C=N/c1cc(Br)c(OC(C)c2cc(F)cc(F)c2)nc1C (stereo not drawn) [Q.113]
Gaeumannomvces graminis
  inhibition at 0.015625 ppm: 0%
Gaeumannomvces graminis; rate 0.03125 ppm
  inhibition at 0.03125 ppm: 0%
Gaeumannomvces graminis; rate 0.0625 ppm
  inhibition at 0.0625 ppm: 0%
Gaeumannomvces graminis; rate 0.125 ppm
  inhibition at 0.125 ppm: 0%
Gaeumannomvces graminis; rate 0.25 ppm
  inhibition at 0.25 ppm: 0%
[1]; Mycosphaerella arachidis, 0.0078125 ppm, read-out: Activity (%)
  inhibition at 0.0078125 ppm: 0%
[1]; [2]
  inhibition at 0.015625 ppm: 0%
[1]; [3]
  inhibition at 0.25 ppm: 70%
  inhibition at 0.5 ppm: 70%
[1]; 0.125 ppm
  Activity (%): 50%

## CCN(C)/C=N/c1cc(Br)c(OC2Cc3ccccc3C2)nc1C [Q.062]
Pyrenophora teres
  pest or weed control at 200 ppm: ≥ 50%
Gaeumannomvces graminis; rate 0.00390625 ppm
  inhibition at 0.00390625 ppm: 0%
Gaeumannomvces graminis; rate 0.0078125 ppm
  inhibition at 0.0078125 ppm: 0%
Gaeumannomvces graminis
  inhibition at 0.015625 ppm: 0%
[1]; [2]
  inhibition at 0.015625 ppm: 0%
[1]; [4]
  inhibition at 0.03125 ppm: 0%
[1]; [5]
  inhibition at 0.0625 ppm: 0%
[1]; Mycosphaerella arachidis, 0.125 ppm, read-out: Activity (%)
  inhibition at 0.125 ppm: 0%
[1]; [3]
  inhibition at 0.25 ppm: 0%
  inhibition at 0.5 ppm: 0%
[1]; Mycosphaerella arachidis, 1 ppm
  inhibition at 1 ppm: 70%
[1]; Mycosphaerella arachidis, 2 ppm
  inhibition at 2 ppm: 70%

## CCN(C)/C=N/c1cc(Br)c(O[C@H]2CC[C@@H](C(C)C)CC2)nc1C [Q.135]
Pythium ultimum; rate 0.0078125 ppm
  inhibition at 0.0078125 ppm: 0%
Pythium ultimum; rate 0.015625 ppm
  inhibition at 0.015625 ppm: 0%
Pythium ultimum; rate 0.03125 ppm
  inhibition at 0.03125 ppm: 0%
Pythium ultimum; rate 0.0625 ppm
  inhibition at 0.0625 ppm: 0%
[1]; Mycosphaerella arachidis, 0.00390625 ppm, read-out: Activity (%)
  inhibition at 0.00390625 ppm: 0%
[1]; [4]
  inhibition at 0.03125 ppm: 50%
[1]; [5]
  inhibition at 0.0625 ppm: 50%
[1]; Mycosphaerella arachidis, 0.15625 ppm
  inhibition at 0.15625 ppm: 0%
[1]; 0.015625 ppm
  Activity (%): 20%
[1]; 0.03125 ppm
  Activity (%): 70%
[1]; 0.0625 ppm
  Activity (%): 70%
